In patent US6355799B1, “Substituted benzene compounds, process for their preparation, and herbicidal and defoliant compositions containing them” (ISK Americas Incorporated, priority 1997, dated 2002):

Columns and labels:
Assay type in all cases: in vivo
[1] = test system: redroot pigweed (Amaranthus retroflexus, AMARE); test: Pre-emerge test, greenhouse herbicide activity screening; details: Amaranthus retroflexus, pre-emergence, 336 h, pre-emerge, phytotoxicity rating 0-100 at 14 days after application, read-out: Pre-emerge Herbicidal Activity AMARE
Summary of the method: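 Rating: 0–100 visual injury, 14 DAA. Application: acetone, 187 l/ha, 15–1000 g ai/ha, flat-fan track sprayer with nozzle 40–45 cm above soil or canopy. Post-emerge runs used 0.25% v/v surfactant on 2–3 leaf plants.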

[2] = test system: barnyardgrass (Echinochloa crus-galli, ECHCG); test: as above; details: Echinochloa crus-galli, pre-emergence, 336 h, pre-emerge, phytotoxicity rating 0-100 at 14 days after application, read-out: Pre-emerge Herbicidal Activity ECHCG
Summary of the method: (§1)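 Sandy loam pots; pre-emerge: sown 1 d pre-spray, surface-watered after, then bottom-watered. Post-emerge: sown 8–21 d before, 2–3 leaf stage, + 0.25% v/v NIS, bottom-watered. Acetone, 187 l/ha track spray, 15–1000 g ai/ha. 0–100 injury score, day 14.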

[3] = test system: green foxtail (Setaria viridis, SETVI); test: as above; details: Setaria viridis, pre-emergence, 336 h, pre-emerge, phytotoxicity rating 0-100 at 14 days after application, read-out: Pre-emerge Herbicidal Activity SETVI
Summary of the method: as §1

[4] = test system: ivyleaf morningglory (Ipomoea hederacea, IPOHE); test: as above; details: Ipomoea, pre-emergence, 336 h, pre-emerge, phytotoxicity rating 0-100 at 14 days after application, read-out: Pre-emerge Herbicidal Activity IPOHE
Summary of the method: as §1

[5] = test system: lambsquarters (Chenopodium album, CHEAL); test: as above; details: Chenopodium album, pre-emergence, 336 h, pre-emerge, phytotoxicity rating 0-100 at 14 days after application, read-out: Pre-emerge Herbicidal Activity CHEAL
Summary of the method: as §1

[6] = test system: large crabgrass (Digitaria sanguinalis, DIGSA); test: as above; details: Digitaria sanguinalis, pre-emergence, 336 h, pre-emerge, phytotoxicity rating 0-100 at 14 days after application, read-out: Pre-emerge Herbicidal Activity DIGSA
Summary of the method: as §1

[7] = test system: sicklepod (Cassia obtusifolia, CASOB); test: as above; details: Senna obtusifolia, pre-emergence, 336 h, pre-emerge, phytotoxicity rating 0-100 at 14 days after application, read-out: Pre-emerge Herbicidal Activity CASOB
Summary of the method: as §1

[8] = test system: velvetleaf (Abutilon theophrasti, ABUTH); test: as above; details: Abutilon theophrasti, pre-emergence, 336 h, pre-emerge, phytotoxicity rating 0-100 at 14 days after application, read-out: Pre-emerge Herbicidal Activity ABUTH
Summary of the method: as §1

[9] = test system: green foxtail (Setaria viridis, SETVI); test: Post-emerge test, greenhouse herbicide activity screening; details: Setaria viridis, post-emergence, 336 h, post-emerge, phytotoxicity rating 0-100 at 14 days after application, read-out: Post-emerge Herbicidal Activity SETVI
Summary of the method: (§2)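 Plants grown in 10 cm pots of sandy loam mix received acetone-dissolved compounds through a moving flat-fan nozzle. Doses ranged from 15 to 1000 g ai/ha. Pre-emerge pots were seeded one day earlier, post-emerge pots 8–21 days earlier. Fourteen days on, each pot was graded 0–100 for damage.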

[10] = test system: ivyleaf morningglory (Ipomoea hederacea, IPOHE); test: as above; details: Ipomoea, post-emergence, 336 h, post-emerge, phytotoxicity rating 0-100 at 14 days after application, read-out: Post-emerge Herbicidal Activity IPOHE
Summary of the method: as §2

[11] = test system: johnsongrass (Sorghum halepense, SORHA); test: as above; details: Sorghum halepense, post-emergence, 336 h, post-emerge, phytotoxicity rating 0-100 at 14 days after application, read-out: Post-emerge Herbicidal Activity SORHA
Summary of the method: as §2

[12] = test system: large crabgrass (Digitaria sanguinalis, DIGSA); test: as above; details: Digitaria sanguinalis, post-emergence, 336 h, post-emerge, phytotoxicity rating 0-100 at 14 days after application, read-out: Post-emerge Herbicidal Activity DIGSA
Summary of the method: as §2

[13] = test system: sicklepod (Cassia obtusifolia, CASOB); test: as above; details: Senna obtusifolia, post-emergence, 336 h, post-emerge, phytotoxicity rating 0-100 at 14 days after application, read-out: Post-emerge Herbicidal Activity CASOB
Summary of the method: as §2

## Cc1nn(-c2c(F)cc(Cl)cc2NC(=O)c2ccc3ccccc3c2)c(=O)n1C(F)F [Compound 6-24]
[1]; rate 63 g ai/ha
  pest or weed control at 63 g/ha: 20%
[1]; rate 250 g ai/ha
  pest or weed control at 250 g/ha: 100%
[2]; rate 63 g ai/ha
  pest or weed control at 63 g/ha: 0%
[2]; rate 250 g ai/ha
  pest or weed control at 250 g/ha: 0%
[3]; rate 63 g ai/ha
  pest or weed control at 63 g/ha: 0%
[3]; rate 250 g ai/ha
  pest or weed control at 250 g/ha: 40%
[4]; rate 63 g ai/ha
  pest or weed control at 63 g/ha: 0%
[4]; rate 250 g ai/ha
  pest or weed control at 250 g/ha: 0%
[5]; rate 63 g ai/ha
  pest or weed control at 63 g/ha: 30%
[5]; rate 250 g ai/ha
  pest or weed control at 250 g/ha: 90%
[6]; rate 63 g ai/ha
  pest or weed control at 63 g/ha: 0%
[6]; rate 250 g ai/ha
  pest or weed control at 250 g/ha: 20%
[7]; rate 63 g ai/ha
  pest or weed control at 63 g/ha: 0%
[7]; rate 250 g ai/ha
  pest or weed control at 250 g/ha: 0%
[8]; rate 63 g ai/ha
  pest or weed control at 63 g/ha: 0%
[8]; rate 250 g ai/ha
  pest or weed control at 250 g/ha: 70%
[9]; 63 g ai/ha
  pest or weed control at 63 g/ha: 0%
[9]; 250 g ai/ha
  pest or weed control at 250 g/ha: 40%
[10]; 63 g ai/ha
  pest or weed control at 63 g/ha: 0%
[10]; 250 g ai/ha
  pest or weed control at 250 g/ha: 60%
[11]; 63 g ai/ha
  pest or weed control at 63 g/ha: 0%
[11]; 250 g ai/ha
  pest or weed control at 250 g/ha: 0%
[12]; 63 g ai/ha
  pest or weed control at 63 g/ha: 0%
[12]; 250 g ai/ha
  pest or weed control at 250 g/ha: 0%
[13]; 63 g ai/ha
  pest or weed control at 63 g/ha: 0%
[13]; 250 g ai/ha
  pest or weed control at 250 g/ha: 10%
